Assay results from PubChem BioAssay (NCI).
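Method: 48-hour compound exposure of cells in 96-well plates, five concentrations, linear interpolation of endpoints. TGI is the concentration that stops growth completely.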

How the values were obtained:
Experiment in all cases: DTP human tumour cell line panel, 48 h
[1] = test system: OVCAR-8 ovarian
[2] = test system: CAKI-1 renal
[3] = test system: SK-MEL-28 melanoma
[4] = test system: MALME-3M melanoma
[5] = test system: UACC-62 melanoma
[6] = test system: LOX IMVI melanoma
[7] = test system: M14 melanoma
[8] = test system: HOP-62 NSCLC
[9] = test system: MDA-N
[10] = test system: PC-3 prostate
[11] = test system: A498 renal
[12] = test system: DU-145 prostate
[13] = test system: SW-620 colon
[14] = test system: SN12C renal
[15] = test system: BT-549 breast
[16] = test system: SK-OV-3 ovarian
[17] = test system: NCI-H23 lung
[18] = test system: SK-MEL-5 melanoma
[19] = test system: HL-60(TB) leukemia
[20] = test system: OVCAR-4 ovarian
[21] = test system: MDA-MB-435
[22] = test system: UO-31 renal
[23] = test system: NCI-H226 lung
[24] = test system: COLO 205 colon
[25] = test system: OVCAR-5 ovarian
[26] = test system: RPMI-8226 leukemia
[27] = test system: OVCAR-3 ovarian
[28] = test system: RXF 393 renal
[29] = test system: EKVX NSCLC
[30] = test system: HCT-116 colon
[31] = test system: SNB-19 CNS
[32] = test system: MCF7 breast
[33] = test system: U251 CNS
[34] = test system: MOLT-4 leukemia
[35] = test system: T-47D breast
[36] = test system: UACC-257 melanoma
[37] = test system: TK-10 renal
[38] = test system: NCI-H522 lung
[39] = test system: NCI/ADR-RES ovarian
[40] = test system: KM12 colon
[41] = test system: IGROV1 ovarian
[42] = test system: ACHN renal
[43] = test system: A549 NSCLC
[44] = test system: SF-268 CNS
[45] = test system: HCT-15 colon
[46] = test system: SK-MEL-2 melanoma
[47] = test system: MDA-MB-231 breast
[48] = test system: SF-295 CNS
[49] = test system: HOP-92 NSCLC
[50] = test system: SR leukemia
[51] = test system: 786-0 renal
[52] = test system: HT29 colon
[53] = test system: K-562 leukemia
[54] = test system: HS 578T breast
[55] = test system: SNB-75 CNS
[56] = test system: HCC-2998 colon
[57] = test system: NCI-H460 lung
[58] = test system: CCRF-CEM leukemia

`O=C1NC(Cc2c[nH]c3ccccc23)C(=O)N2C(c3ccccc3)c3[nH]c4ccccc4c3C[C@@H]12` (stereo partly drawn) was tested, and the TGI [1] was 82.7 µM, the TGI [2] was 55.9 µM and the TGI [3] was > 100 µM. For the same compound, the TGI [4] was 33.7 µM, the TGI [5] was 34.7 µM and the TGI [6] was 40.6 µM. For the same compound, the TGI [7] was 49.1 µM, the TGI [8] was 38.2 µM and the TGI [9] was 38.9 µM. The TGI [10] was 53.8 µM, the TGI [11] was > 100 µM and the TGI [12] was > 100 µM. For the same compound, the TGI [13] was > 100 µM, the TGI [14] was 33.3 µM and the TGI [15] was 46.4 µM. For the same compound, the TGI [16] was > 100 µM, the TGI [17] was 57.1 µM and the TGI [18] was 32.7 µM. The TGI [19] was 50.8 µM, the TGI [20] was > 100 µM and the TGI [21] was 39.7 µM. For the same compound, the TGI [22] was 67.3 µM, the TGI [23] was 88.9 µM and the TGI [24] was 45.9 µM. The TGI [25] was 45.2 µM, the TGI [26] was 50.8 µM and the TGI [27] was 35.7 µM. It also gave a TGI [28] of 34.3 µM, a TGI [29] of 65.2 µM and a TGI [30] of 30.6 µM. For the same compound, the TGI [31] was > 100 µM, the TGI [32] was > 100 µM and the TGI [33] was 39.2 µM. The TGI [34] was 42.2 µM, the TGI [35] was > 100 µM and the TGI [36] was 51.6 µM. It also gave a TGI [37] of 91.4 µM, a TGI [38] of 45.5 µM and a TGI [39] of 58.3 µM. The TGI [40] was 40 µM, the TGI [41] was 50.1 µM and the TGI [42] was 89.2 µM. The TGI [43] was > 100 µM, the TGI [44] was 95.7 µM and the TGI [45] was 54.3 µM. For the same compound, the TGI [46] was 46.5 µM, the TGI [47] was 42.2 µM and the TGI [48] was 33.1 µM. The TGI [49] was 53.7 µM, the TGI [50] was 37.7 µM and the TGI [51] was 39.1 µM. It also gave a TGI [52] of 48.6 µM, a TGI [53] of 55.1 µM and a TGI [54] of 40.6 µM.
With `Cc1nc2ccc(N=NN(C)C)cc2[nH]1` the TGI [1] was > 100 µM, the TGI [2] was > 100 µM and the TGI [3] was > 100 µM. For the same compound, the TGI [4] was > 100 µM, the TGI [5] was > 100 µM and the TGI [6] was > 100 µM. The TGI [7] was > 100 µM, the TGI [8] was > 100 µM and the TGI [9] was > 100 µM. For the same compound, the TGI [10] was > 100 µM, the TGI [11] was > 100 µM and the TGI [12] was > 100 µM. For the same compound, the TGI [13] was > 100 µM, the TGI [14] was > 100 µM and the TGI [15] was > 100 µM. For the same compound, the TGI [16] was > 100 µM, the TGI [18] was > 100 µM and the TGI [20] was > 100 µM. For the same compound, the TGI [21] was > 100 µM, the TGI [22] was > 100 µM and the TGI [23] was > 100 µM. For the same compound, the TGI [24] was > 100 µM, the TGI [25] was > 100 µM and the TGI [26] was > 100 µM. The TGI [27] was > 100 µM, the TGI [28] was > 100 µM and the TGI [55] was > 100 µM. The TGI [29] was > 100 µM, the TGI [30] was > 100 µM and the TGI [31] was > 100 µM. For the same compound, the TGI [56] was > 100 µM, the TGI [32] was > 100 µM and the TGI [33] was > 100 µM. For the same compound, the TGI [34] was > 100 µM, the TGI [35] was > 100 µM and the TGI [36] was > 100 µM. The TGI [57] was > 100 µM, the TGI [37] was > 100 µM and the TGI [38] was > 100 µM. The TGI [39] was > 100 µM, the TGI [40] was > 100 µM and the TGI [41] was > 100 µM. The TGI [42] was > 100 µM, the TGI [43] was > 100 µM and the TGI [58] was > 100 µM. The TGI [44] was > 100 µM, the TGI [45] was > 100 µM and the TGI [46] was > 100 µM. The TGI [47] was > 100 µM, the TGI [48] was > 100 µM and the TGI [50] was > 100 µM. The TGI [51] was > 100 µM, the TGI [52] was > 100 µM and the TGI [54] was > 100 µM.
